What was measured:
Format in all cases: in vivo, mice (C57BL/6J)
[1] = Body and liver weight of treated mice; conditions: mean ± S.E.; for Liver weight / Liver/Body (%): day of kill; for Total weight Gain / Body weight (Day1) / Body weight (Day5) / Body weight (Day10) / Body weight (Day14): mice
Experimental: (§1) This experiment was conducted under Flinders animal welfare approval number 751-10. A total of 38 wild-type (C57BL/6J) male mice aged 10 weeks were obtained from the Animal Resource Centre, Perth, Western Australia. Mice were divided randomly into 4 groups (ten mice in each treatment group and 8 mice in the sunflower oil only control group) and housed in 8 cages (four to five mice per cage). The mice were given water and food (rodent chow) ad libitum and maintained at the temperature of 22 ± 2 °C and humidity of 80% ± 10% with a 12 h light/dark cycle. Mice were weighed every five days and on the day of kill, and monitored daily for signs of illness, such as weight and hair loss, diarrhea, constipation, rectal bleeding, labored breathing, lethargy, eye and nose discharge.
(§2) To detect the early stage prevention of colon cancer, an established AARGC rodent model with injection of the carcinogen AOM was used. Synthetic 6-bromoisatin at 3 different dosages (0.025, 0.05 and 0.1 mg/g body weight) was administered to mice by daily oral gavage in 100 µL sunflower oil, containing 0.02% Vitamin E, for two weeks. The control group was gavaged with sunflower oil (containing 0.02% Vitamin E) only. After two weeks, all mice were injected with a single intraperitoneal (i.p.) injection of AOM at a dosage of 10 mg/kg bodyweight and euthanized 6 h later by cervical dislocation under anesthesia. […] The distal colon of each mouse was excised and fixed in 10% buffered formalin for 24 h and then embedded in paraffin for histological and immunohistological examination.

distal colon crypts = test: AARGC mouse model: crypt height; conditions: 0.025-0.1 mg/g daily oral gavage 14 days, 6 h post AOM
Experimental: as §1
To detect the early stage prevention of colon cancer, an established AARGC rodent model with injection of the carcinogen AOM was used. Synthetic 6-bromoisatin at 3 different dosages (0.025, 0.05 and 0.1 mg/g body weight) was administered to mice by daily oral gavage in 100 µL sunflower oil, containing 0.02% Vitamin E, for two weeks. […]
Distal colon segments were embedded in paraffin and sectioned at 4 µm (3–4 sections per mouse), then stained with hematoxylin, to evaluate apoptosis in epithelial cells of distal colon sections. […] The mean crypt column height was also determined.

Plasma biochemistry = test: Plasma biochemistry
Experimental: as §2
(§3) Blood samples (0.5–1 mL) were obtained from the mice under anesthesia by cardiac puncture at time of kill and transferred to Gribbles Veterinary Pathology laboratory, Adelaide within heparinized vacutainer tubes then centrifuged to separate into the cell layer for hematology analysis (Abbott Cell Dyn 3700 analyzer, North Ryde, NSW, Australia) and plasma for biochemistry analysis (Siemens Advia 1800 chemistry analyzer, Erlangen, Germany). The plasma levels of the liver enzymes AST, ALT and ALP were assessed as indicators of hepatotoxicity.

[2] = tested on: distal colonic epithelial cells; test: AARGC mouse model: Ki-67 proliferation index; conditions: distal colon, compared to oil control
Experimental: as §1, §2
Ki-67 is a cell cycle associated antigen and regarded as a useful proliferation marker. Proliferative activity of distal colonic epithelial cells was measured using an antibody specific for the nuclear proliferating antigen ki-67 (rat-anti-mouse clone TEC-3, Dako, Campbellfield, VIC, Australia) in combination with an immunohistochemistry detection method in paraffin embedded sections, as previously described. […]

[3] = Plasma liver enzymes AST, ALT, ALP (hepatotoxicity); conditions: 0.025-0.1 mg/g daily gavage two weeks, versus oil control
Experimental: as §2, §3

[4] = 0.025 mg/g daily oral gavage 14 days
[5] = 0.05 mg/g daily oral gavage 14 days
[6] = 0.1 mg/g daily oral gavage 14 days
[7] = 0.025 mg/g, n = 6, 6 h after AOM 10 mg/kg
[8] = 0.05 mg/g, n = 6, 6 h after AOM 10 mg/kg
[9] = 0.1 mg/g, n = 8, 6 h after AOM 10 mg/kg

## O=C1Nc2cc(Br)ccc2C1=O [6-bromoisatin, 6-Bromoindole-2,3-dione]
[1]; [4]
  Liver weight: 1.0 ± 0.1 g
  Liver/Body (%): 4.4 ± 0.6%
  Total weight Gain: 1.4 ± 0.8 g
[1]; 0.025 mg/g daily oral gavage
  Body weight (Day1): 22.2 ± 1.3 g
  Body weight (Day5): 22.7 ± 1.3 g
  Body weight (Day10): 23.0 ± 1.3 g
  Body weight (Day14): 23.6 ± 1.4 g
[1]; [5]
  Liver weight: 1.2 ± 0.1 g
  Liver/Body (%): 5.2 ± 0.6%
  Total weight Gain: 1.4 ± 1.0 g
[1]; 0.05 mg/g daily oral gavage
  Body weight (Day1): 22.6 ± 1.2 g
  Body weight (Day5): 23.4 ± 1.2 g
  Body weight (Day10): 23.4 ± 1.5 g
  Body weight (Day14): 24.1 ± 1.6 g
[1]; [6]
  Liver weight: 1.3 ± 0.1 g
  Liver/Body (%): 5.3 ± 0.4%
  Total weight Gain: 1.4 ± 0.8 g
[1]; 0.1 mg/g daily oral gavage
  Body weight (Day1): 22.3 ± 1.3 g
  Body weight (Day5): 22.6 ± 1.3 g
  Body weight (Day10): 23.3 ± 1.3 g
  Body weight (Day14): 23.8 ± 1.6 g
Distal colon crypts
  colon crypt height: no significant effect
Plasma biochemistry; [7]
  Albumin: 28.7 ± 1.5 g/L
  Calcium: 2.2 ± 0.1 mmol/L
  Creat. (Creatinine): 13.3 ± 0.8 µmol/L
  Globulin: 18.0 ± 1.4 g/L
  NA/K (Sodium/Potassium ratio): 29.1 ± 1.2
  Potassium: 5.1 ± 0.2 mmol/L
  Protein: 46.7 ± 2.8 g/L
  Sodium: 147.7 ± 0.5 mmol/L
  Urea: 9.7 ± 1.6 mmol/L
Plasma biochemistry; [8]
  Albumin: 27.8 ± 1.5 g/L
  Calcium: 2.2 ± 0.04 mmol/L
  Creat. (Creatinine): 14.7 ± 0.5 µmol/L
  Globulin: 18.3 ± 0.8 g/L
  NA/K (Sodium/Potassium ratio): 33.5 ± 2.7
  Potassium: 4.5 ± 0.4 mmol/L
  Protein: 46.2 ± 1.9 g/L
  Sodium: 149.7 ± 1.4 mmol/L
  Urea: 9.9 ± 1.4 mmol/L
Plasma biochemistry; [9]
  Albumin: 28.2 ± 1.5 g/L
  Calcium: 2.2 ± 0.1 mmol/L
  Creat. (Creatinine): 14.6 ± 1.2 µmol/L
  Globulin: 17.9 ± 1.2 g/L
  NA/K (Sodium/Potassium ratio): 34.1 ± 3.6
  Potassium: 4.3 ± 0.4 mmol/L
  Protein: 46.1 ± 2.2 g/L
  Sodium: 149.7 ± 1.2 mmol/L
  Urea: 9.6 ± 1.2 mmol/L
[2]; 0.025 mg/g daily oral gavage two weeks
  cell proliferation: did not show a significant anti-proliferative effect
[2]; 0.05 mg/g daily oral gavage two weeks
  cell proliferation: significantly reduced
[2]; 0.1 mg/g daily oral gavage two weeks
  reduction in cell proliferation: more than 50%
[3]
  plasma level of AST, ALT and ALP: No significant difference
